Source: patent US5462936A, “Benzothiazepine derivatives” (Shionogi & Co., Ltd., priority 1991, dated 1995)

Legend:
Calcium Channel = Calcium Channel (Oryctolagus cuniculus, UniProt P15381); test: Calcium channel antagonism: relaxing action on extracted blood vessel (rabbit femoral artery, contracture by 50 mM KCl); conditions: 50 mM KCl contracture, 50% of maximum relaxing (0.1 mM papaverine)
Protocol: Calcium Channel Antagonism and […] Action (Relaxing Action on Extracted Blood Vessel)
Male rabbits weighing 2-3 kg (Rabiton, Japanese albino species) were anesthetized through intravenous administration of pentobarbital (50 mg/kg), and sacrificed by bloodletting through dissection of axillary artery. Femoral artery was extracted, connective tissue surrounding the artery was removed, and helical specimen was prepared. The specimen was suspended in an organ bath (20 cc) filled with 37° C. Krebs-Henseleit nutritious solution and bubbled with a 95% O2 +5% CO2 mixed gas. 1.5 g of resting tension was loaded on femoral artery. Isometric change of the tension of the specimen was recorded on a thermal recorder (Nippon Koden WT-685G) via F-D pickup Nippon Koden (TB611T) and Preamp (Nippon Koden). Ca-antagonism of a test compound was evaluated by observing relaxing action due to accumulative addition of the compound on the contracture caused by the application of 50 mM KCl. α-Blocking action was similarly evaluated by observing such relaxing action on the contracture caused by the application of 1 μM norepinephrine (NE). […] The concentration of a given compound, which is necessary for giving 50% of the maximum relaxing (IC50), was determined using the above system.

cultured cardiac cells = test: Anti-hypoxia action on cultured cardiac cells (inhibition of CPK leakage); type: cell-based, rat (newborn Crj-SD); conditions: Rattus norvegicus, read-out: Anti-hypoxia Activity (%), rate of inhibition on CPK leakage
Protocol: Anti-hypoxia action of the compounds of the present invention were investigated through studying their action in connection with the protection of cardiomuscular cells.
Primary culture of cardiac cells was prepared from newborn Crj-SD rats (2-3 day old) and used in the experiment. The primary culture was prepared according to the method described by Jones R. L. et al., Am. J. Pathol., 135, 541-556, 1989. Thus, cardiac cells were isolated from ventricle muscle using collagenase and pancreatin, and then the cardiac cells were separated and purified from cell debris, erythrocytes, and fibroblasts by means of Percoll density-gradient centrifugation. The cells were spread on a culture plate at a ratio of 2-3×10^5 cells/3.5 cm plate, and the cells were cultured for two days in Dulbecco's Modified Eagle's Medium (DMEM) containing 10% Fetal Bovine Serum (FBS) in an incubator (5% CO2 /95% Air) kept at 37° C. After sufficient growth of the cardiac cells, the culture medium was changed to DMEM free from FBS, and the culture was continued additional one day. The cells thus obtained were used in the experiment.
Hypoxia was generated using Gas Pak™ Anaerobic Chamber (BBL) which produces hypoxia by capturing residual O2 and changing it into H2 0 by the action of a H2 /CO2 generating bag and catalyst. The cardiac cell plate, wherein the culture medium had been changed to DMEM which is free from FBS and glucose, was set in the chamber, and the chamber was placed in an incubator. Anti-hypoxia activity of test compounds was determined by measuring inhibition rate of leakage of creatine phosphokinase activity into the culture medium.
The compounds tested were all dissolved in DMSO using HCO-50 as a solubilizing agent (DMSO:HCO-50=9:1), and directly charged onto the culture plate. The final concentrations of DMSO and HCO-50 in the culture medium were adjusted to 0.09% and 0.01% respectively. CPK activity was measured by colorimetry (Wako Kit) modified from Oliver method.
The numerical values in the table show cardiac cells-protecting activity of test compounds in terms of the rate (%) of inhibition on CPK leakage determined in connection with the test compounds when the amount of the CPK leakage for negative control (no addition of the test compounds) was defined as 100%.

[1] = tested on: cardiac muscle damage due to ischemia; test: Anti-necrosis activity (left coronary ligation and reperfusion, CPK retention in left ventricle); type: in vivo, rat (Wistar); conditions: Rattus norvegicus; for inhibition in vivo at 0.3 mg/kg: 0.3 mg/kg iv
Protocol: Male Sic Wistar rats weighing 200-250 g were anesthetized with urethane (1 g/kg), and ramus descendens of the left coronaria was ligated for 20 minutes and then reperfused according to the method described by Hock et al (Hock, […]., Am. Heart J., 109 222, 1985). […] For three hours after the reperfusion, the rats were subjected to heat insulation on a warming mat. After 120 minutes, the hearts were extracted, and the free walls of the left ventricles were frozen and storred until determination of CPK activity. CPK activity was determined according to the method of Bernauer, W. (Arch. int. Pharmacodyn., 231 90, 1978) after minor modification. Thus, the extracted tissue was homogenized in 10 volumes of 0.1M Tris/HCl (pH 7.5) containing 1 mM mercaptoethanol and centrifuged at 20,000 g for 20 minutes. The supernatant was used for determination of CPK activity, which was conducted using a commercially available kit (CPK-Test, Wako). CPK was determined using serum CPK as a standard and expressed with "U/mg protein". […] The degree of the inhibition was measured in terms of the CPK activity retained in the left ventricle. The test results are shown in Table 7, wherein percentage of the retention (%) at each dose was calculated based on the following equation.

[2] = tested on: spontaneous hypertensive rats (SHR); test: Action on blood pressure and heart rate of not-anesthetized SHR; type: in vivo, rat (SHR); conditions: 30 mg/kg PO, 2 and 4 hours after administration; for Antihypertensive action (%): decrease in SBP
Protocol: Action of the compounds of the invention on blood pressure and heart rate of not-anesthetized spontaneous hypertensive rats (SHR)
Male Japanese Charles-River SHR (13-17 week old) were used in the experiment (S. Matsuda, J. Pharmacol. Method, 17 361, 1987). Systolic blood pressure (SBP) and heart rate of the animals were measured non-invasively (indirectly) using hemadynamometer for caudal artery pressure (6 channel type) before the administration of test compounds, at 2 and 4 hours after administration. Test compounds were dissolved in DMSO (100%) and orally administered. Decreased values in SBP and heart rate determined 2 and 4 hours after administration when compared with those determined before administration are shown in percentage (%) in the following table.

Sequence of Calcium Channel (P15381 whole entry): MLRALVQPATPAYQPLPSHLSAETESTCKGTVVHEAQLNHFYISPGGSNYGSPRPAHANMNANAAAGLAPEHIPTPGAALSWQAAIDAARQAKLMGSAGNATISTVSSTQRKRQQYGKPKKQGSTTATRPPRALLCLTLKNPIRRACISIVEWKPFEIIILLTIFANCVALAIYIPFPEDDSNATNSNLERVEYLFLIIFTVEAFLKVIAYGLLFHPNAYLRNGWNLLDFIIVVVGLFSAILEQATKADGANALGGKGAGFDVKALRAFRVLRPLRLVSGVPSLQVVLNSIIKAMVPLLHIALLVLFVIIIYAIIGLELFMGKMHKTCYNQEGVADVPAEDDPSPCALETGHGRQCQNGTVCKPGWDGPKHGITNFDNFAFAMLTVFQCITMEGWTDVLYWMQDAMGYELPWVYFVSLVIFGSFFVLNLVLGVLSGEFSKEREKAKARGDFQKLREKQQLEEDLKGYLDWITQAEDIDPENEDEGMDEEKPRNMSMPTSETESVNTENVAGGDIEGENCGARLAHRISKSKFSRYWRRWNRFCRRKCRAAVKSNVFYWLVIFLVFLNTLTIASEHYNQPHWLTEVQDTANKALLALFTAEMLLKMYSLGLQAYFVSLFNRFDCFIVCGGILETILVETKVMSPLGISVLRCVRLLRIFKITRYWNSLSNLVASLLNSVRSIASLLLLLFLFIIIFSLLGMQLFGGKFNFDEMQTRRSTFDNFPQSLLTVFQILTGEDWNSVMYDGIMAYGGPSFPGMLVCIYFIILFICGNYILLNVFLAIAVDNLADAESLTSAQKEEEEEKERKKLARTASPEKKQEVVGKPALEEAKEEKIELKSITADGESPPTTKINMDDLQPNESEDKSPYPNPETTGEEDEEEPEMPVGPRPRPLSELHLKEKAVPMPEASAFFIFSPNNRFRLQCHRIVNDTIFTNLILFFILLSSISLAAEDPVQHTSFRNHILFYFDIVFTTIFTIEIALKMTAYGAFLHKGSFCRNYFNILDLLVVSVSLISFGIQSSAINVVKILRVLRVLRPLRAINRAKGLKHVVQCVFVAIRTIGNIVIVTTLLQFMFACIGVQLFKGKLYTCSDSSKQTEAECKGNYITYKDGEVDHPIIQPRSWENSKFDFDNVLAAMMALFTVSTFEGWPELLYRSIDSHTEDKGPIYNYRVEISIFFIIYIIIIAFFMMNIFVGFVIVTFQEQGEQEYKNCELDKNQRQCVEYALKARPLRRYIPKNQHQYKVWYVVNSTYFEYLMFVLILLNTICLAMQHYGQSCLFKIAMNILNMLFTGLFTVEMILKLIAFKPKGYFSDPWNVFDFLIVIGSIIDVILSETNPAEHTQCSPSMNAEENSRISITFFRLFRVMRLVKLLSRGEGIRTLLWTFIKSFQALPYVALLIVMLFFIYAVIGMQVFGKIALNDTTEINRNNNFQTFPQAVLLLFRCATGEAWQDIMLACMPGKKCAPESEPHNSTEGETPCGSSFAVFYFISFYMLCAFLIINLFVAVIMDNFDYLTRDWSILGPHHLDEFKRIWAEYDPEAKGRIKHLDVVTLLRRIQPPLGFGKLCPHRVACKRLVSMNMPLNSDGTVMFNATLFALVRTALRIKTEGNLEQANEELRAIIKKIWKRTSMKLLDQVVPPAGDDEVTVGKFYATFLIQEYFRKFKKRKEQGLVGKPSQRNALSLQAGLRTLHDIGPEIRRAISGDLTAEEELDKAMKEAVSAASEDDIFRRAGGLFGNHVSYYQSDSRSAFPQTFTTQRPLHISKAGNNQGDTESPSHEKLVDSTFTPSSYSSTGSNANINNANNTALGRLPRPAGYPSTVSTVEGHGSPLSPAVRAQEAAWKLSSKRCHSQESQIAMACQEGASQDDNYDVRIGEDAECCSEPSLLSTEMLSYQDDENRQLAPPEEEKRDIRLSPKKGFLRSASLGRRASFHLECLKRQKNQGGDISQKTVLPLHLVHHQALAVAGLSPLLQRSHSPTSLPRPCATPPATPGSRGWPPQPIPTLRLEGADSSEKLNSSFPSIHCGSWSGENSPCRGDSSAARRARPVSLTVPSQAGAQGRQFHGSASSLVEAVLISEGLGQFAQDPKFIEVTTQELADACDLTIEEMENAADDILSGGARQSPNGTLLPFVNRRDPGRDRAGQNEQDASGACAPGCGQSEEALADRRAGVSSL
Sequence of Calcium Channel (P13806 27-960 partner limits assumed): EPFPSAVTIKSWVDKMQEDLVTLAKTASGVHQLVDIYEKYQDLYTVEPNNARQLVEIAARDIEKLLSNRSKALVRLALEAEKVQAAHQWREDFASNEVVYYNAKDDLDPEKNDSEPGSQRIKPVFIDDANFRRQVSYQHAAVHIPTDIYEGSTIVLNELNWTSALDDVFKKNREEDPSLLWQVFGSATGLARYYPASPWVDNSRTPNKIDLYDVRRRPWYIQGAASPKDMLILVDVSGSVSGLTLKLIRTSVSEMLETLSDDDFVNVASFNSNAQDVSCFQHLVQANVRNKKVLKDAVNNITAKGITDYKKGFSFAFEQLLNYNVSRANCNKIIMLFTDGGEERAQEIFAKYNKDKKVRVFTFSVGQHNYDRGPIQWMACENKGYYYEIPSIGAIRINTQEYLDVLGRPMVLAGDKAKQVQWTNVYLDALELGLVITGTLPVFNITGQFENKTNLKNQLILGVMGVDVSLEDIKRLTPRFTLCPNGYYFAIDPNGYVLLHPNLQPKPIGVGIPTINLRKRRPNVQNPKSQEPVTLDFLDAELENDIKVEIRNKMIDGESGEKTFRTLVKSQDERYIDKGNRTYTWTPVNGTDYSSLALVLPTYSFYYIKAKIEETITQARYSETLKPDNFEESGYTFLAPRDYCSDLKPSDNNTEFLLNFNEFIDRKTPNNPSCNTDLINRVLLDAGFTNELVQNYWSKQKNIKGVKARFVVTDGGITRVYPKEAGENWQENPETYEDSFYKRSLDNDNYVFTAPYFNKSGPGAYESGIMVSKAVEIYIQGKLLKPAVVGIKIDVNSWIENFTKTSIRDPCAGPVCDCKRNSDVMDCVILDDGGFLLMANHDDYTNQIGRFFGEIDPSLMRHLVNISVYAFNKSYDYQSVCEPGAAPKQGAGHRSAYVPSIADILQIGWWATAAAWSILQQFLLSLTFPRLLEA
Sequence of Calcium Channel (P13806 961-1106 partner limits assumed): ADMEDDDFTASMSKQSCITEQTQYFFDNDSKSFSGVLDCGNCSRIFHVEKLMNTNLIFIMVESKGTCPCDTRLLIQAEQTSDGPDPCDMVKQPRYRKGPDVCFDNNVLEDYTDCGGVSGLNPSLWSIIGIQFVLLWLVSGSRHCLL

Row | Structure (SMILES) | inhibition at 10 µM (cultured cardiac cells) [%] | inhibition at 1 µM (cultured cardiac cells) [%] | other results
1 | COc1ccc([C@@H]2Sc3cc(Cl)ccc3N(CCCN3CCN(Cc4ccc5c(c4)OCO5)CC3)C(=O)[C@@H]2OC(C)=O)cc1 (relative stereo) [Compound I-5] | 66 |  | IC50 (Calcium Channel): 250 nM
2 | COc1ccc([C@@H]2Sc3cc(Cl)ccc3N(CCCCN3CCN(c4ccccc4OC)CC3)C(=O)[C@@H]2OC(C)=O)cc1 [Compound I-33, (2S-cis)-3-Acetoxy-5-[4-(4-(2-methoxyphenyl)-1-piperazinyl)butyl]-2,3-dihydro-2-(4-methoxyphenyl)-8-chloro-1,5-benzothiazepin-4(5H)-one] | 87 | 36.9 | 
3 | COc1ccc([C@@H]2Sc3cc(Cl)ccc3N(CCCN3CCN(C(c4ccc(Cl)cc4)c4ccc(Cl)cc4)CC3)C(=O)[C@@H]2OC(C)=O)cc1 [Compound I-24, (2S-cis)-3-Acetoxy-5-[3-(4-(4-dichlorobenzhydryl)-1-piperazinyl)propyl]-2,3-dihydro-2-(4-methoxyphenyl)-8-chloro-l,5-benzothiazepin-4(5H)-one] | 88 | 14.1 | inhibition in vivo at 0.3 mg/kg [1]: 35%
4 | COc1ccc([C@@H]2Sc3cc(Cl)ccc3N(CCCN3CCN(C(=O)c4ccco4)CC3)C(=O)[C@@H]2OC(C)=O)cc1 (relative stereo) [Compound I-7, 3-Acetoxy-5-[3-(4-(2-furoyl)-1-piperazinyl)propyl]-2,3-dihydro-2-(4-methoxyphenyl)-8-chloro-1,5-benzothiazepin-4(5H)-one] |  | 36 | 
5 | COc1ccc([C@@H]2Sc3cc(Cl)ccc3N(CCCN3CCN(C(c4ccccc4)c4ccc(Cl)cc4)CC3)C(=O)[C@@H]2OC(C)=O)cc1 (relative stereo) [Compound I-16, 3-Acetoxy-5-[3-(4-(4-chlorobenzhydryl)-piperazinyl)propyl]-2,3-dihydro-2-(4-methoxyphenyl)-8-chloro-1,5-benzothiazepin-4(5H)-one] | 57 | 18.4 | Decrease of heart rate (%) [2]: 15%; Antihypertensive action (%) [2]: 19%; IC50 (Calcium Channel): 240 nM
6 | COc1ccc([C@@H]2Sc3cc(Cl)ccc3N(CCCN3CCN(c4ccccn4)CC3)C(=O)[C@@H]2OC(C)=O)cc1 (relative stereo) [Compound I-3, 3-Acetoxy-5-[3-(4-(2-piridyl)1-piperazinyl)propyl]-2,3-dihydro-2-(4-methoxyphenyl)-8-chloro-1,5-benzothiazepin-4(5H)-one] |  | 34 | 
7 | COc1ccc([C@@H]2Sc3cc(Cl)ccc3N(CCCN3CCN(c4ccc(Cl)cc4)CC3)C(=O)[C@@H]2OC(C)=O)cc1 [Compound I-25, (2S-cis)-3-Acetoxy-5-[3-(4-(4-chlorophenyl)-1-piperazinyl)propyl]-2,3-dihydro-2-(4-methoxyphenyl)-8-chloro-l,5-benzothiazepin-4(5H)-one] | 89 | 25.2 | 
8 | COc1ccc([C@@H]2Sc3cc(Cl)ccc3N(CCCN3CCN(c4ccccc4)CC3)C(=O)[C@@H]2OC(C)=O)cc1 (relative stereo) [Compound I-1, 3-Acetoxy-5-[3-(4,phenyl-1-piperazinyl)propyl]-2,3-dihydro-2-(4-metoxyphenyl)-8-chloro-1,5-benzothiazepin-4(5H)-one] | 66 |  | 
9 | COc1ccc([C@@H]2Sc3cc(Cl)ccc3N(CCCN3CCN(c4ccc(F)cc4)CC3)C(=O)[C@@H]2OC(C)=O)cc1 (relative stereo) [Compound I-12, 3-Acetoxy-5-[3-(4-(4-fluorophenyl)-piperazinyl)propyl]-2,3-dihydro-2-(4-methoxyphenyl)-8-chloro-1,5-benzothiazepin-4(5H)-one] | 87 | 10 | inhibition in vivo at 1 mg/kg ([1]; 1 mg/kg iv): 23%
10 | COc1ccc([C@@H]2Sc3cc(Cl)ccc3N(CCCN3CCC(c4ccccc4)(c4ccccc4)CC3)C(=O)[C@@H]2OC(C)=O)cc1 (relative stereo) [Compound I-14, 3-Acetoxy-5-[3-(4,4-diphenyl-1piperizinyl)propyl]-2,3-dihydro-2-(4-methoxyphenyl)-8-chloro-1,5-benzothiazepin-4(5H)-one] | 83.6 |  | Decrease of heart rate (%) [2]: 9.8%; Antihypertensive action (%) [2]: 14%; IC50 (Calcium Channel): 100 nM
11 | COc1ccc([C@@H]2Sc3cc(Cl)ccc3N(CCCN3CCN(C(c4ccccc4)c4ccccc4)CC3)C(=O)[C@@H]2OC(C)=O)cc1 [Compound I-23, (2S-cis)-3-Acetoxy-5-[3-(4-(benzhydryl)-piperazinyl)propyl]-2,3-dihydro-2-(4-methoxyphenyl)-8-chloro-1,5-benzothiazepin-4(5H)-one] | 87 | 36.4 | Decrease of heart rate (%) [2]: 12%; Antihypertensive action (%) [2]: 16%; inhibition in vivo at 0.3 mg/kg [1]: 45%
12 | COc1ccc([C@@H]2Sc3cc(Cl)ccc3N(CCCN3CCN(c4ccc(OC)cc4)CC3)C(=O)[C@@H]2OC(C)=O)cc1 [Compound I-29, (2S-cis)-3-Acetoxy-5-[3-(4-(4methoxyphenyl) -1-piperazinyl)propyl]methoxyphenyl-8-chloro-1,5-benzothiazepin-4(5H)-one] |  | 30 | 
13 | COc1ccc([C@@H]2Sc3cc(Cl)ccc3N(CCCN3CCN(c4cc(OC)c(OC)c(OC)c4)CC3)C(=O)[C@@H]2OC(C)=O)cc1 [Compound I-32, (2S-cis)-3-Acetoxy-5-[3-(4-(3,4,5trimethoxyphenyl) - 1-piperazinyl)propyl]-2,3-dihydro-2-(4methoxyphenyl) -8-chloro-1,5-benzothiazepin-4 (5H)-one] | 66.1 |  | 
14 | COc1ccc([C@@H]2Sc3cc(Cl)ccc3N(CCCCCN3CCN(c4ccccc4OC)CC3)C(=O)[C@@H]2OC(C)=O)cc1 [Compound I-34, (2S-cis)-3-Acetoxy-5-[5-(4-(2-methoxyphenyl)-1-piperazinyl)pentyl]-2,3-dihydro-2-(4-methoxyphenyl)-8-chloro-l,5-benzothiazepin-4(5H)-one] | 80 |  | 
15 | COc1ccc([C@@H]2Sc3cc(Cl)ccc3N(CCN3CCC(c4ccccc4)CC3)C(=O)[C@@H]2OC(C)=O)cc1 (relative stereo) [Compound I-11] |  |  | IC50 (Calcium Channel): 200 nM
16 | COc1ccc([C@@H]2Sc3cc(Cl)ccc3N(CCN3CCN(c4ccc(F)cc4)CC3)C(=O)[C@@H]2OC(C)=O)cc1 (relative stereo) [Compound I-13, 3-Acetoxy-5-[2-(4-(4-fluorophenyl)-piperazinyl)ethyl]-2,3-dihydro-2-(4-methoxyphenyl)-8-chloro-1,5-benzothiazepin-4(5H)-one] | 61 | 15 | 
